Type in all cases: physicochemical
Series [1] is described as follows: Miscibility with a polymer matrix, visual evaluation. Also on record: key to Miscibility, PMMA: ⊚: dissolves up to 30 wt %; ◯: dissolves up to 5 wt %; Δ: disperses up to 5 wt %, but there is turbidity; X: repelled at the polymer surface. The protocol:
(§1) The miscibility of the rare earth complex with various media was evaluated as follows.
2) Miscibility with a Polymer Matrix
The rare earth complex serving as the sample was added in the concentrations listed with the evaluation criteria below relative to various media, and the miscibility was visually evaluated according to the following criteria. • ⊚: dissolves up to 30 wt % • ◯: dissolves up to 5 wt % • Δ: disperses up to 5 wt %, but there is turbidity • X: repelled at the polymer surface

Series [2] is described as follows: Number of moles of bound water per mole of complex (TG-DTA). The following applies: for Bound water (number of moles of bound water per mole of complex): Table 1, dried samples for the ternary complexes. The procedure:
The number of moles of bound water per mole of complex was measured using a TG-DTA 2000 from MAC Science.
A 20 g quantity of Eu(PMS)3 was added to 100 mL of isopropanol, then 43 g ([…] the molar amount of the Eu(PMS)3) of triphenylphosphine oxide (hereinafter referred to as TPPO) was added, and the system was refluxed for 3 hours, and then gradually cooled. The resulting white powder was filtered off. The white powder thus obtained was washed with hot n-hexane, and recrystallized with water-methanol to obtain 44 g of Eu(PMS)3(TPPO)8 in the form of white acicular crystals (yield: 85%). The TG-DTA was measured for these crystals, and it was found from the weight reduction at 100° C. that the number of moles of bound water per mole of complex was 2.93. The IR, NMR, UV absorption characteristics, and elemental analysis results for the obtained Eu(PMS)3(TPPO)8(H2O)2.93 are given below.
Eu(PMS)3(TPPO)8(H2O)2.93 obtained by the above synthesis method was dried in vacuo for 3 hours at 140° C. and a reduced pressure of […]. TG-DTA measurement for the resulting white powder was carried out to obtain a weight reduction at 100° C. It was found from the obtained value that the number of moles of bound water per mole of complex was 0.18.

Series [3] in a line: Luminescence quantum yield and luminescence intensity in solution. The conditions noted are these: acetonitrile solution; for Relative luminescence intensity: Eu 0.05 mol/L; for Luminescence quantum yield: europium ion 0.05 mol/L, excitation 465 nm, luminescence 612 nm. The procedure:
(§2) The intensity of luminescence and the luminescence quantum yield, the quotient of dividing the number of photons emitted from a sample by the number of photons absorbed into the sample, were measured with an SS-25 from JASCO Corporation.
The luminescence quantum yield of an acetonitrile solution of the Eu(PMS)3(TPPO)8 obtained in Example 1 (europium ion concentration: 0.05 mol/L) was measured (excitation wavelength: 465 nm, maximum luminescence wavelength: 612 nm, luminescence wavelength used in measurement: 612 nm).
The solutions prepared in Examples 12 to 14 and Comparative Examples 7 to 9 and Comparative Example B were measured for luminescence intensity at the respective maximum luminescence wavelengths.
The relative luminescence intensity of the solutions used in Examples 12 to 14 and Comparative Example B: (luminescence intensity in each of Examples 12 to 14)/(luminescence intensity in Comparative Example 7) was calculated, letting 1 be the luminescence intensity in Comparative Example 7 (solution of a rare earth complex in which the ligand Z was not coordinated).
Similarly, the relative luminescence intensity in Comparative Example 9: (luminescence intensity in Comparative Example 9)/(luminescence intensity in Comparative Example 8) was calculated, letting 1 be the luminescence intensity in Comparative Example 8 (solution of a known β-diketone-type of rare earth complex in which the ligand Z was not coordinated). The relative luminescence intensity of the solution used in Comparative Example B was 1.6 times.
The luminescence quantum yield of an acetone-d6 solution of the Nd(PMS)3(TPPO)8 obtained in Example 2 (neodymium ion concentration: 0.05 mol/L) was measured (excitation wavelength: 585 nm, maximum luminescence wavelength: 1064 nm, luminescence wavelength used in measurement: 1064 nm).
The solutions prepared in Examples 15 and 16 and Comparative Examples 10 were measured for luminescence intensity at the respective maximum luminescence wavelengths. The relative luminescence intensity in Examples 15 and 16: (luminescence intensity in each of Examples 15 and 16)/(luminescence intensity in Comparative Example 10) was calculated, letting 1 be the luminescence intensity in Comparative Example 10 (rare earth complex in which the ligand Z was not coordinated).

Series [4] can be described thus: Miscibility with solvents, visual evaluation at 5 wt %. Also on record: key: ⊚: dissolves at room temperature; ◯: dissolves when heated for 5 minutes at 40° C.; Δ: dissolves under heating, but cooling precipitates crystals; X: does not dissolve. The following applies: complex added at 5 wt %. The procedure: as §1
1) Miscibility with Solvents

A short description of series [5]: Luminescence quantum yield and luminescence intensity in PMMA polymer matrix composition. The following applies: PMMA rod; for Relative luminescence intensity: Eu 0.7 wt %, relative to Eu(PMS)3 (Comparative Example 11) = 1; for Luminescence quantum yield: rare earth ion 0.7 wt %, excitation 465 nm, luminescence 612 nm. The protocol:
as §2
A 1 mL quantity of refined anhydrous methyl methacrylate (MMA), 0.5 mg of AIBN, and 148 mg (0.7 wt %) as the rare earth ion concentration) of the Eu (PMS)3 (TPPO)8 obtained in Example 1 were mixed, the mixture was transferred to a Pyrex tube, and the inside of the tube was deaerated and then sealed. By reacting for 5 hours at 60° C., the polymerization of MMA was carried out. The resulting PMMA containing Eu(PMS)3 (TPPO)8 was taken out of the Pyrex tube, and a rod-shaped polymer matrix composition was obtained.
The polymer matrix compositions prepared in Examples 17 to 19 and Comparative Example 11 were measured for luminescence intensity at the respective maximum luminescence wavelengths. The relative luminescence intensity in Examples 17 to 19: (luminescence intensity in each of Examples 17 to 19)/(luminescence intensity in Comparative Example 11) was calculated, letting 1 be the luminescence intensity in Comparative Example 11 (rare earth complex in which the ligand Z was not coordinated).
A rod-shaped polymer matrix composition containing […] was obtained in the same manner as in Example 17, except that 148 mg (rare earth ion concentration: 0.7 wt %) of the Nd(PMS)3 (TPPO)8 obtained in Example 2 was used instead of Eu(PMS)3 (TPPO)8.
The polymer matrix compositions prepared in Examples 20 and 21 and Comparative Example 12 were measured for luminescence intensity at the respective maximum luminescence wavelengths. The relative luminescence intensity in Examples 20 and 21: (luminescence intensity in each of Examples 20 and 21)/(luminescence intensity in Comparative Example 12) was calculated, letting 1 be the luminescence intensity in Comparative Example 12 (rare earth complex in which the ligand Z was not coordinated).

[6] abbreviates: relative to Eu(HFA)3 (Comparative Example 8) = 1.
The mark [7] stands for this setting: relative to Eu(PMS)3 (Comparative Example 7) = 1.
Where [8] appears, read: before drying (crystals as obtained), weight reduction at 100° C.

Take `O=C(C=C([O-])C(F)(F)F)C(F)(F)F.O=C(C=C([O-])C(F)(F)F)C(F)(F)F.O=C(C=C([O-])C(F)(F)F)C(F)(F)F.O=P(c1ccccc1)(c1ccccc1)c1ccccc1.O=P(c1ccccc1)(c1ccccc1)c1ccccc1.[Eu+3]` [Eu(HFA)3(TPPO)2, reference compound]: in series [1], the “Miscibility, Epoxy resin” value was “◯ (dissolves up to 5 wt %)”; the “Miscibility, Nafion” value is on record as “Δ (disperses up to 5 wt %, but there is turbidity)”; the “Miscibility, PMMA” value is “Δ (disperses up to 5 wt %, but there is turbidity)”. Also, the “Bound water (number of moles of bound water per mole of complex)” value in series [2] is recorded as 0.00. Moreover, the Relative luminescence intensity in series [3] (setting [6]) is recorded as 4.6. For the same compound, in series [4], the “Miscibility, Acetone” value is recorded as “⊚”; the “Miscibility, Chloroform” value is listed as “◯”; the “Miscibility, Toluene” value is given as “◯”; the “Miscibility, Water” value is on record as “X”.

On to `O=C(C=C([O-])C(F)(F)F)C(F)(F)F.O=C(C=C([O-])C(F)(F)F)C(F)(F)F.O=C(C=C([O-])C(F)(F)F)C(F)(F)F.[Eu+3]` [Eu(HFA)3, reference compound], for which, in series [1], the “Miscibility, Epoxy resin” value is on record as “◯ (dissolves up to 5 wt %)”; the “Miscibility, Nafion” value is on record as “Δ (disperses up to 5 wt %, but there is turbidity)”; the “Miscibility, PMMA” value is “X”. Moreover, the “Bound water (number of moles of bound water per mole of complex)” value in series [2] is on record as 2.00. Besides, in series [3] (setting [6]), the Relative luminescence intensity amounted to 1.0. Also, the Luminescence quantum yield in series [3] is on record as 8.0%. Besides, in series [4], the “Miscibility, Acetone” value was “⊚”; the “Miscibility, Chloroform” value is reported as “X”; the “Miscibility, Toluene” value is listed as “X”; the “Miscibility, Water” value is “X”.

`O=S(=O)([N-]S(=O)(=O)C(F)(F)F)C(F)(F)F.O=S(=O)([N-]S(=O)(=O)C(F)(F)F)C(F)(F)F.O=S(=O)([N-]S(=O)(=O)C(F)(F)F)C(F)(F)F.[2H]C([2H])([2H])S(=O)C([2H])([2H])[2H].[2H]C([2H])([2H])S(=O)C([2H])([2H])[2H].[2H]C([2H])([2H])S(=O)C([2H])([2H])[2H].[2H]C([2H])([2H])S(=O)C([2H])([2H])[2H].[2H]C([2H])([2H])S(=O)C([2H])([2H])[2H].[2H]C([2H])([2H])S(=O)C([2H])([2H])[2H].[2H]C([2H])([2H])S(=O)C([2H])([2H])[2H].[2H]C([2H])([2H])S(=O)C([2H])([2H])[2H].[Eu+3]` [Eu(PMS)3 (DMSO-d6)8, reference compound] yielded a Relative luminescence intensity in series [3] (setting [7]) of 1.6. The compound also registered a Luminescence quantum yield in series [3] of 44.0%.

Consider `O=S(=O)([N-]S(=O)(=O)C(F)(F)F)C(F)(F)F.O=S(=O)([N-]S(=O)(=O)C(F)(F)F)C(F)(F)F.O=S(=O)([N-]S(=O)(=O)C(F)(F)F)C(F)(F)F.O=S(c1ccccc1)c1ccccc1.O=S(c1ccccc1)c1ccccc1.O=S(c1ccccc1)c1ccccc1.O=S(c1ccccc1)c1ccccc1.O=S(c1ccccc1)c1ccccc1.O=S(c1ccccc1)c1ccccc1.O=S(c1ccccc1)c1ccccc1.O=S(c1ccccc1)c1ccccc1.[Eu+3]` [Eu(PMS)3(DPSO)8], for which, in series [1], the “Miscibility, Epoxy resin” value was “◯ (dissolves up to 5 wt %)”; the “Miscibility, Nafion” value is “◯ (dissolves up to 5 wt %)”; the “Miscibility, PMMA” value is “◯ (dissolves up to 5 wt %)”. In series [5], this compound came in with a Relative luminescence intensity of 710 and a Luminescence quantum yield of 39.0%. In series [2], the “Bound water (number of moles of bound water per mole of complex)” value was determined as 0.00. In addition, the “Number of moles of bound water per mole of complex” value in series [2] (setting [8]) is “water was not coordinated”. Also, in series [3] (setting [7]), the Relative luminescence intensity came out at 41.7. This compound had a Luminescence quantum yield in series [3] of 32.0%. In series [4], the “Miscibility, Acetone” value is recorded as “⊚”; the “Miscibility, Chloroform” value is reported as “◯”; the “Miscibility, Toluene” value was “◯”; the “Miscibility, Water” value is “X”.

Take `O=P(c1ccccc1)(c1ccccc1)c1ccccc1.O=P(c1ccccc1)(c1ccccc1)c1ccccc1.O=P(c1ccccc1)(c1ccccc1)c1ccccc1.O=P(c1ccccc1)(c1ccccc1)c1ccccc1.O=P(c1ccccc1)(c1ccccc1)c1ccccc1.O=P(c1ccccc1)(c1ccccc1)c1ccccc1.O=P(c1ccccc1)(c1ccccc1)c1ccccc1.O=P(c1ccccc1)(c1ccccc1)c1ccccc1.O=S(=O)([N-]S(=O)(=O)C(F)(F)F)C(F)(F)F.O=S(=O)([N-]S(=O)(=O)C(F)(F)F)C(F)(F)F.O=S(=O)([N-]S(=O)(=O)C(F)(F)F)C(F)(F)F.[Eu+3]` [Eu(PMS)3(TPPO)8]: in series [1], the “Miscibility, Epoxy resin” value is “◯ (dissolves up to 5 wt %)”; the “Miscibility, Nafion” value was “◯ (dissolves up to 5 wt %)”; the “Miscibility, PMMA” value is recorded as “◯ (dissolves up to 5 wt %)”. In series [5], this compound yielded a Relative luminescence intensity of 15466 and a Luminescence quantum yield of 19.0%. The “Bound water (number of moles of bound water per mole of complex)” value in series [2] is 0.18. Besides, in series [2] (after drying in vacuo at 140° C.), the “Number of moles of bound water per mole of complex” value is recorded as 0.18. Further, in series [2] (setting [8]), the “Number of moles of bound water per mole of complex” value came to 2.93. In addition, the Relative luminescence intensity in series [3] (setting [7]) turned out to be 45.1. In series [3], this compound came in with a Luminescence quantum yield of 5.6%. In addition, in series [4], the “Miscibility, Acetone” value is listed as “⊚”; the “Miscibility, Chloroform” value is on record as “⊚”; the “Miscibility, Toluene” value is on record as “◯”; the “Miscibility, Water” value is listed as “X”.

(Values after patent publication US20050261264A1, “Rare-earth ternary complex” (priority 2000, published 2005).)
